# According to article PMC5431190, “Investigation of cationicity and structure of pseudin-2 analogues for enhanced bacterial selectivity and anti-inflammatory activity” (Scientific Reports, 2017):
# Residues, ends and D or L forms follow the SMILES beside them.
# Key:
# [1] = tested on: S. aureus 3126(R) (MRSA 3126); assay type: cell-based, Staphylococcus aureus; details: multidrug-resistant strain; 1% peptone media, 16 h at 37 °C
# [2] = tested on: Escherichia coli CCARM 1229 (MDREC 1229); assay type: cell-based; details: multidrug-resistant strain; 1% peptone media, 16 h at 37 °C
# Source text: (§1) Four Gram-negative bacteria species (Escherichia coli KCTC 1682, Acinetobacter baumannii KCTC 2508, Pseudomonas aeruginosa KCTC 1637 and Salmonella typhimurium KCTC 1926) and three Gram-positive bacteria species (Staphylococcus aureus KCTC 1621, Bacillus subtilis KCTC 3028 and Staphylococcus epidermidis KCTC 1917) were procured from the Korean Collection for Type Cultures (KCTC). Multi-drug-resistant Gram-negative bacteria (Salmonella typhimurium CCARM 8003 and 8007, Escherichia coli CCARM 1229 and 1238, Pseudomonas aeruginosa CCARM 2002 and 2095 and Acinetobacter baumannii CCARM 12035 and 12036) were obtained from the Culture Collection of Antibiotic-Resistant Microbes (CCARM). To determine MICs, bacteria were cultured in Luria-Bertani (LB) medium for overnight at 37 °C. An aliquot of the culture was incubated in 1% peptone media at 37 °C until mid-log phase. 100 μl of serial 2-fold diluted peptides were treated in 96 well plates and added to 100 μl of 2 × 10^6 CFU/ml bacterial suspensions in 1% peptone media for 16 h at 37 °C.
# [3] = tested on: Pseudomonas aeruginosa CCARM 2002 (MDRPA 2002); assay type: cell-based; details: multidrug-resistant strain; 1% peptone media, 16 h at 37 °C
# Source text: as §1
# [4] = tested on: Staphylococcus epidermidis KCTC 1917; assay type: cell-based; details: standard strain KCTC 1917; 1% peptone media, 16 h at 37 °C; three independent experiments in triplicate, SD 14.0%
# Source text: as §1
# [5] = tested on: Gram-negative bacteria (E. coli, A. baumannii, P. aeruginosa, S. typhimurium); assay type: cell-based; details: average over the four Gram-negative standard strains
# Source text: as §1
# [6] = tested on: Acinetobacter baumannii CCARM 12035 (MDRAB 12035); assay type: cell-based; details: multidrug-resistant strain; 1% peptone media, 16 h at 37 °C
# Source text: as §1
# [7] = tested on: Gram-positive bacteria (S. aureus, B. subtilis, S. epidermidis); assay type: cell-based; details: average over the three Gram-positive standard strains
# Source text: as §1
# [8] = tested on: Acinetobacter baumannii CCARM 12036 (MDRAB 12036); assay type: cell-based; details: multidrug-resistant strain; 1% peptone media, 16 h at 37 °C
# Source text: as §1
# [9] = tested on: Pseudomonas aeruginosa CCARM 2095 (MDRPA 2095); assay type: cell-based; details: multidrug-resistant strain; 1% peptone media, 16 h at 37 °C
# Source text: as §1
# [10] = tested on: Acinetobacter baumannii KCTC 2508; assay type: cell-based; details: standard strain KCTC 2508; 1% peptone media, 16 h at 37 °C; three independent experiments in triplicate, SD 14.0%
# Source text: as §1
# [11] = tested on: Bacillus subtilis KCTC 3028; assay type: cell-based; details: standard strain KCTC 3028; 1% peptone media, 16 h at 37 °C; three independent experiments in triplicate, SD 14.0%
# Source text: as §1
# [12] = tested on: Pseudomonas aeruginosa KCTC 1637; assay type: cell-based; details: standard strain KCTC 1637; 1% peptone media, 16 h at 37 °C; three independent experiments in triplicate, SD 14.0%
# Source text: as §1
# [13] = tested on: Salmonella typhimurium CCARM 8003 (MDRST 8003); assay type: cell-based; details: multidrug-resistant strain; 1% peptone media, 16 h at 37 °C
# Source text: as §1
# [14] = tested on: Escherichia coli CCARM 1238 (MDREC 1238); assay type: cell-based; details: multidrug-resistant strain; 1% peptone media, 16 h at 37 °C
# Source text: as §1
# [15] = tested on: Staphylococcus aureus KCTC 1621; assay type: cell-based; details: standard strain KCTC 1621; 1% peptone media, 16 h at 37 °C; three independent experiments in triplicate, SD 14.0%
# Source text: as §1
# [16] = tested on: Escherichia coli KCTC 1682; assay type: cell-based; details: standard strain KCTC 1682; 2-fold dilutions, 1% peptone media, 2 × 10^6 CFU/ml suspension, 16 h at 37 °C; three independent experiments in triplicate, SD 14.0%
# Source text: as §1
# [17] = tested on: Salmonella typhimurium CCARM 8007 (MDRST 8007); assay type: cell-based; details: multidrug-resistant strain; 1% peptone media, 16 h at 37 °C
# Source text: as §1
# [18] = tested on: Salmonella typhimurium KCTC 1926; assay type: cell-based; details: standard strain KCTC 1926; 1% peptone media, 16 h at 37 °C; three independent experiments in triplicate, SD 14.0%
# Source text: as §1
# [19] = tested on: S. aureus 3108(R) (MRSA 3108); assay type: cell-based, Staphylococcus aureus; details: multidrug-resistant strain; 1% peptone media, 16 h at 37 °C
# [20] = tested on: S. aureus 3089(R) (MRSA 3089); assay type: cell-based, Staphylococcus aureus; details: multidrug-resistant strain; 1% peptone media, 16 h at 37 °C
# [21] = tested on: human red blood cells (hRBCs); test: Haemolytic activity; assay type: cell-based; details: 1 h at 37 °C
# Protocol: Peptide-induced lysis of human red blood cells (hRBCs) was determined as follows. Fresh hRBCs were washed 2–3 times with phosphate-buffered saline (PBS) by centrifugation for 5 min at 2500 rpm at 4 °C. Peptides in PBS were incubated with 4% (v/v) hRBCs for 1 h at 37 °C. Samples were then centrifuged for 5 min at 1000 × g. The absorbance of the supernatant at 405 nm was used as a measure of haemolysis. As a positive control, 100% haemolysis was obtained by treating hRBCs with 0.1% Triton X-100.
SMILES,"MIC, MRSA 3126 [1] [µM]","MIC, MDREC 1229 [2] [µM]","MIC, MDRPA 2002 [3] [µM]","MIC, S. epidermidis [4] [µM]","Average MIC, Gram-negative [5] [µM]","MIC, MDRAB 12035 [6] [µM]","Average MIC, Gram-positive [7] [µM]","MIC, MDRAB 12036 [8] [µM]","MIC, MDRPA 2095 [9] [µM]","MIC, A. baumannii [10] [µM]","MIC, B. subtilis [11] [µM]","MIC, P. aeruginosa [12] [µM]","MIC, MDRST 8003 [13] [µM]","MIC, MDREC 1238 [14] [µM]","MIC, S. aureus [15] [µM]","MIC, E. coli [16] [µM]","MIC, MDRST 8007 [17] [µM]","MIC, S. typhimurium [18] [µM]","MIC, MRSA 3108 [19] [µM]","MIC, MRSA 3089 [20] [µM]",other results
"CC[C@H](C)[C@H](NC(=O)CN)C(=O)NCC(=O)N[C@@H](C)C(=O)N[C@H](C(=O)N[C@@H](CC(C)C)C(=O)N[C@@H](CCCCN)C(=O)N[C@H](C(=O)N[C@@H](CC(C)C)C(=O)N[C@H](C(=O)N[C@H](C(=O)NCC(=O)N[C@@H](CC(C)C)C(=O)N1CCC[C@H]1C(=O)N[C@@H](C)C(=O)N[C@@H](CC(C)C)C(=O)N[C@H](C(=O)N[C@@H](CO)C(=O)N[C@@H](Cc1c[nH]c2ccccc12)C(=O)N[C@H](C(=O)N[C@@H](CCCCN)C(=O)N[C@@H](CCCNC(=N)N)C(=O)N[C@@H](CCCCN)C(=O)N[C@@H](CCCNC(=N)N)C(=O)N[C@@H](CCC(N)=O)C(=O)N[C@@H](CCC(N)=O)C(N)=O)[C@@H](C)CC)[C@@H](C)CC)[C@@H](C)O)[C@@H](C)O)C(C)C)C(C)C [Melittin, reference compound]",2,4,2,2,5,4,3.33,4,2,4,4,4,8,4,4,4,8,8,2,2,–
CC[C@H](C)[C@H](NC(=O)[C@H](C)NC(=O)[C@H](CCCCN)NC(=O)[C@H](Cc1c[nH]cn1)NC(=O)[C@@H](NC(=O)[C@@H]1CCCN1C(=O)[C@H](CCC(N)=O)NC(=O)[C@H](Cc1ccccc1)NC(=O)[C@@H](NC(=O)[C@H](CCCCN)NC(=O)[C@H](CCCCN)NC(=O)[C@H](CC(C)C)NC(=O)[C@H](C)NC(=O)[C@H](CC(N)=O)NC(=O)[C@H](CC(C)C)NC(=O)CN)C(C)C)[C@@H](C)CC)C(=O)N[C@@H](CCCCN)C(=O)N[C@@H](CCCCN)C(=O)N[C@H](C(=O)N[C@@H](CC(N)=O)C(=O)N[C@@H](CC(N)=O)C(=O)N[C@@H](Cc1c[nH]cn1)C(=O)N[C@H](C(=O)N[C@@H](CCC(N)=O)C(=O)O)C(C)C)[C@@H](C)CC [Ps-K14-K18-P] (H-GLNALKKVFQPIHKAIKKINNHVQ-OH),64,8,16,64,7,16,42.67,8,16,8,32,8,16,8,32,4,16,8,32,32,"haemolysis at 400 μM ([21]; 400 μM peptide, 4% hRBCs, PBS, 100% = 0.1% Triton X-100): 0.3%; MHC (minimal peptide concentration that produces haemolysis) ([21]; 4% (v/v) hRBCs in PBS, absorbance 405 nm, printed in both Gram-negative and Gram-positive sections): 400 µM"
